In patent US12383535B2, “Hydrogen peroxide-responsive KEAP1-NRF2 ppi inhibitor prodrug, and preparation method therefor” (CHINA PHARMACEUTICAL UNIVERSITY, priority 2019, dated 2025):

What was measured:
[1] = Parallel artificial membrane permeability assay (PAMPA); format: in vitro ADME
Experimental: Potential solubility data were obtained with a pSOL model 3 instrument (pION INC, Cambridge, Massachusetts, USA). Cell membrane permeability was determined on a PAMPA Explorer instrument (pION).
Subsequently, the permeability of cell membranes was measured by standard parallel artificial membrane permeability assay (PAMPA).

[2] = system: Nrf2-ARE in RAW264.7 cells; experiment: ARE inductivity under LPS stimulation; format: cell-based, mouse; conditions: Mus musculus, RAW264.7, read-out: EC50 of ARE inductivity
RAW264.7 cells = experiment: IL-1β, IL-6, TNF-α and NO assays in cell culture supernatant; format: cell-based, mouse; conditions: Mus musculus, RAW264.7, read-out: EC50 for reduction of extracellular NO concentration
Experimental: IL-1β (IL-1β (m) ELISA kit, EK0394, Boster), IL-18 (IL-18 (m) ELISA kit, EMC011, NeoBioscience), IL-6 (IL-6 (m) ELISA kit EK0411, Boster), TNF-α (TNF-α (m) ELISA kit, EK0527, Boster) and NO (nitrate/nitrite assay kit, S0023, Beyotime, China) were tested using commercially available kits according to the manufacturer's instructions.
Then, several inflammatory mediators closely related to ROS, including IL-1β, IL-6, TNF-α and NO, were further evaluated.

[3] = Drug release rate by HPLC (H2O2 activation of prodrug); format: physicochemical; conditions: in the presence of H2O2, 12 h, UPLC/HRMS
Experimental: The target compound was dissolved in DMSO to give a 10 mM stock solution, which was then stored at −20° C. The final concentration was brought to 50 μM by adding the target compound (10 mM) to phosphate buffered saline (PBS) (10 mM, pH 7.4), and H2O2 was added. The solution was well vortexed, and then incubated at 37° C. Samples were taken at appropriate time intervals and analyzed by HPLC directly after injection, and the peak areas were recorded to calculate the percentage of the compound. The procedure was repeated three times. The following Agilent 1260 HPLC and DAD detectors were used: Agilent C18 column (4.6×150 mm, 3.5 μm); mobile phase: 70% methanol; flow rate: 0.5 mL/min. A standard curve of the compound was plotted against concentration.
After treatment with 10 mM H2O2, the prodrug pro2 was activated with prolonged incubation time and the active parent compound 2 was completely released within 3 h (HPLC-determined conversion >98%, (B) of FIG. 1 and (C) of FIG. 1).

SMILES	Pe at pH 7.4 [1]	Papp ([1]; pH 7.4, read-out: Pe at pH 7.4) [×10⁻⁶ cm/s]	EC50 [2] [nM]	EC50 (RAW264.7 cells) [nM]	production of the active parent compound 1 [3]
COc1ccc(S(=O)(=O)Nc2ccc(N(CC(=O)O)S(=O)(=O)c3ccc(OC)cc3)c3ccccc23)cc1 [Compound 2, N-(4-((4-methoxyphenyl)sulfonamido)naphthalen-1-yl)-N-((4-methoxyphenyl)sulfonyl)glycine]	0.80 10^−6 cm/s	0.8	> 4520	> 120	–
COc1ccc(S(=O)(=O)N(CC(=O)N2CCSC2=O)c2ccc(N(CC(=O)N3CCSC3=O)S(=O)(=O)c3ccc(OC)cc3)c3ccccc23)cc1 [pro1, N,N′-(naphthalene-1,4-diyl)bis(4-methoxy-N-(2-oxo-2-(2-oxothiazolidin-3-yl)ethyl)benzenesulfonamide)]	–	–	–	–	no production of the active parent compound 1 could be observed
